Source: publication PMC10461229 (Journal of Medicinal Chemistry, 2023)
Where two headings read alike, the source gives them in different places.

Experiments:
CYP2C9 = CYP2C9 (Homo sapiens, UniProt P11712); assay: CYP2C9 inhibition in human liver microsomes; details: for % 4 OH-diclofenac activity: HLM
CYP3A4 = target: T1, CYP3A4 (Homo sapiens, UniProt P08684); assay: CYP3A4 inhibition in human liver microsomes; type: in vitro ADME; details: HLM
T1 construct: from tissue; host or cells: human liver microsomes

in vitro = details: human, Caco-2, pH 7.4
[1] = system: wild-type (WT) Mtb Erdman; assay: microbe, parasite or virus in culture; type: cell-based, Mycobacterium tuberculosis; details: read-out: MABA mean IC50 ± SD
HEK 293 = details: for HEK 293 LD50: 48 h, MTT; for Therapeutic index, LD50 in HEK 293 / MABA IC50: 48 h treatment, MTT assay
Mtb biofilm formation = assay: microbe, parasite or virus in culture; type: cell-based; details: Mycobacterium tuberculosis, 504 h, read-out: Biofilm inhibition IC50
Mtb Erdman = type: cell-based, Mycobacterium tuberculosis
BEAS-2B = details: for BEAS-2B LD50: 48 h, MTT; for Therapeutic index, LD50 in BEAS-2B / MABA IC50: 48 h treatment, MTT assay
Mtb katG^FS = type: cell-based, Mycobacterium tuberculosis
Calu-3 cells = details: for Calu-3 LD50: 72 h, CellTiter-Glo, 50% decrease in cellular ATP, IMD salts; for Therapeutic index, LD50 in Calu-3 / MABA IC50: 72 h treatment, CTG assay
IMR-90 = details: for IMR-90 LD50: 48 h, MTT
[2] = system: murine RAW 264.7 macrophages; assay: Cytotoxicity assay on murine macrophages; type: cell-based, mouse; details: 5 days, total cell number vs DMSO 1%
Description: Mouse macrophage RAW 264.7 cells (ATCC # TIB-71) were maintained in RPMI-1640 + GlutaMAX containing 10% heat-inactivated fetal bovine serum (FBS, 10270106, Gibco). Macrophages were harvested using Versene (15040033, LifeTechnologies).
For assay plate preparation, the lead compounds were diluted in DMSO (Sigma-Aldrich) to 10 mg/mL and dispensed in Echo-qualified 384-well low dead volume source plates using the Echo 550 Series Liquid Handler (Labcyte). The compounds were transferred to 384-well clear-bottom polystyrene assay plates (781091, Greiner Bio-One) using acoustic liquid handling technology. All samples were backfilled with DMSO.
The cellular suspension (50 μL containing 20,000 cells) was added to the 384-well assay plate and incubated for 5 days at 37 °C, 5% CO2. Macrophages were then stained with SYTO 60 dye (S11342, Molecular probes), followed by image acquisition and data analysis. Confocal images were recorded on an automated high-content fluorescence microscope (InCell 6500, Cytiva). A series of four pictures of each well were taken, and each image was then analyzed using the Columbus system to infer the total number of cells. Dose–response plots were generated for each compound using GraphPad Prism software.

[3] = system: H37Rv-GFP Mtb in murine RAW 264.7 macrophages; type: cell-based, Mycobacterium tuberculosis
Caco-2 cells = details: membrane integrity control, 5 μM; cited from earlier work
[4] = Mycobacterium tuberculosis, ERDMAN

Chain of CYP2C9 (P11712 whole entry): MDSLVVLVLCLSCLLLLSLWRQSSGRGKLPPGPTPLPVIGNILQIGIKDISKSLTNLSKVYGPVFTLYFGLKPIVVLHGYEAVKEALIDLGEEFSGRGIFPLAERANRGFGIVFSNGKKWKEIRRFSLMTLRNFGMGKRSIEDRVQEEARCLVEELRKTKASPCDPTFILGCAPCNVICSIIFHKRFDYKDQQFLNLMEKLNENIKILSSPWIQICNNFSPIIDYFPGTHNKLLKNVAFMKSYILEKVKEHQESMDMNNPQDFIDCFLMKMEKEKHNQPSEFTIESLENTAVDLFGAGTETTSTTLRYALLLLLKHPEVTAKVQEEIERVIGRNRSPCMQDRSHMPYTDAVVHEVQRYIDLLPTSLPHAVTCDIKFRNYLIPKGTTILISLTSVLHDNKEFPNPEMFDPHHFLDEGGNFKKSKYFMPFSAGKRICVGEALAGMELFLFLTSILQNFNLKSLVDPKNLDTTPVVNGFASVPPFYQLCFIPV
T1 sequence (P08684 whole entry): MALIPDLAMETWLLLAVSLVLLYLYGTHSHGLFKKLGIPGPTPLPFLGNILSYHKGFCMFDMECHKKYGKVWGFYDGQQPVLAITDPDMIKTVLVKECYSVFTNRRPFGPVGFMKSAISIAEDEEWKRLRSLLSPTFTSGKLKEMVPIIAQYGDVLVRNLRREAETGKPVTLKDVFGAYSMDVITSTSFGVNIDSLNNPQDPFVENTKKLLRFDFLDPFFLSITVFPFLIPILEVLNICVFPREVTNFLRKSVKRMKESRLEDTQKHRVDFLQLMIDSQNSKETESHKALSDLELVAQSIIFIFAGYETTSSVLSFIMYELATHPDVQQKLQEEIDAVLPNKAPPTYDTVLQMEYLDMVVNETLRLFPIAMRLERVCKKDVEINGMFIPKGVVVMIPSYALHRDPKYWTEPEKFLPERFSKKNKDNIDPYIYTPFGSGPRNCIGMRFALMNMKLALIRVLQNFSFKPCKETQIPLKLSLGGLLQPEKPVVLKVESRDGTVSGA

SMILES | IC50 (CYP2C9) [µM] | % 4 OH-diclofenac activity (CYP2C9; 1 μM compound) [%] | % 4 OH-diclofenac activity (CYP2C9; 10 μM compound) [%] | % 4 OH-diclofenac activity (CYP2C9; 100 μM compound) [%] | % 1OH-midazolam activity (CYP3A4; 1 μM compound) [%] | % 6OH-testosterone activity (CYP3A4; 1 μM compound) [%] | % 1OH-midazolam activity (CYP3A4; 10 μM compound) [%] | % 6OH-testosterone activity (CYP3A4; 10 μM compound) [%] | % 1OH-midazolam activity (CYP3A4; 100 μM compound) [%] | % 6OH-testosterone activity (CYP3A4; 100 μM compound) [%] | IC50 [1, 4] [µM] | IC50 [1] [µM] | HEK 293 LD50 (HEK 293) [µM] | Therapeutic index, LD50 in HEK 293 / MABA IC50 (HEK 293) | IC50 (Mtb biofilm formation) [µM] | BEAS-2B LD50 (BEAS-2B) [µM] | Therapeutic index, LD50 in BEAS-2B / MABA IC50 (BEAS-2B) | Mtb katG^FS CFU after 13 days, combination with INH (Mtb katG^FS) | Mtb katG^FS CFU after 13 days, compound alone vs control (Mtb katG^FS) | Calu-3 LD50 (Calu-3 cells) [µM] | other results
CC(C)(C)c1ccc(-c2nnc(SCc3cc(=O)n4c(c3C3CC3)SCC4C(=O)O)o2)cc1 (racemic) [Compound 8f, (±) 7-(((5-(4-(tert-Butyl)phenyl)-1,3,4-oxadiazol-2-yl)thio)methyl)-8-cyclopropyl-5-oxo-2,3-dihydro-5H-thiazolo[3,2-a]pyridine-3-carboxylic Acid] | 10 to 100 | 100 ± 2.7 | 93 ± 6.7 | 31 ± 3.6 | 108 ± 4.1 | 98 ± 4.0 | 117 ± 1.4 | 94 ± 5.8 | 84 ± 5.0 | 60 ± 1.9 | 6.2 | 6.19 ± 0.67 |  |  |  |  |  |  |  |  | Papp A→B (in vitro): 3.3 ×10⁻⁶ cm/s
CC(C)(C)c1ccc(-n2cc(-c3cc(=O)n4c(c3C3CC3)SCC4C(=O)O)nn2)cc1 (racemic) [Compound 15d, (±) 7-(1-(4-(tert-Butyl)phenyl)-1H-1,2,3-triazol-4-yl)-8-cyclopropyl-5-oxo-2,3-dihydro-5H-thiazolo[3,2-a]pyridine-3-carboxylic Acid] | 1 to 10 | 83 ± 4.6 | 32.9 ± 1.0 | 2.61 ± 0.29 | 102 ± 1.4 | 105 ± 1.0 | 95 ± 2.7 | 101 ± 3.9 | 67 ± 1.5 | 75 ± 1.9 | 5.67 ± 0.82 |  |  |  |  |  |  |  |  |  | Papp A→B at 2 µM (in vitro): 0.88 ×10⁻⁶ cm/s
O=C(O)C1CSc2c(C3CC3)c(-c3cc(-c4ccc5ccccc5c4)no3)cc(=O)n21 (racemic) [Compound 17h, (±) 8-Cyclopropyl-7-(3-(naphthalen-2-yl)isoxazol-5-yl)-5-oxo-2,3-dihydro-5H-thiazolo[3,2-a]pyridine-3-carboxylic Acid] |  |  |  |  |  |  |  |  |  |  | 0.703 | 0.7 ± 0.05 | 101.6 | 144.5 | 3.47 ± 1.21 | 143.1 | 203.5 | below the input dose | no difference in CFU | >250 | inhibition of OD600 of Mtb cultures in the presence of tyloxapol (Mtb Erdman): neither 17h nor 17j inhibited the OD600 of Mtb cultures; Therapeutic index, LD50 in Calu-3 / MABA IC50 (Calu-3 cells): >355; IMR-90 LD50 (IMR-90): 122.5 µM; cytotoxicity for uninfected murine RAW 264.7 macrophages [2]: not cytotoxic; inhibition of intracellular Mtb replication in macrophages [3]: inhibited intracellular mycobacteria at concentrations lower than C10
O=C(O)C1CSc2c(C3CC3)c(Cc3cccc4ccccc34)cc(=O)n21 (centres unmarked) [Compound C10, reference compound] |  |  |  |  |  |  |  |  |  |  | 14.4 | 14.4 | 151.7 | 10.5 | 8.28 ± 3.23 | 146.2 | 10.1 | did not inhibit the survival of Mtb katG^FS beyond the effect of INH alone | no difference in CFU | 160.4 | Therapeutic index, LD50 in Calu-3 / MABA IC50 (Calu-3 cells): 11.1; IMR-90 LD50 (IMR-90): 147.1 µM; Therapeutic index, LD50 in IMR-90 / MABA IC50 (IMR-90; 48 h treatment, MTT assay): 10.1; cytotoxicity for uninfected murine RAW 264.7 macrophages [2]: not cytotoxic
NNC(=O)c1ccncc1 [INH, isoniazid] |  |  |  |  |  |  |  |  |  |  |  |  |  |  |  |  |  |  |  |  | surviving Mtb katG^FS after 13 days of treatment (Mtb katG^FS): 8.09 × 10^8 CFU/mL
C[C@H](N[C@@H](CCc1ccccc1)C(=O)O)C(=O)N1CCC[C@H]1C(=O)O [enalaprilat] |  |  |  |  |  |  |  |  |  |  |  |  |  |  |  |  |  |  |  |  | Papp of enalaprilat for a tight monolayer (Caco-2 cells): < 1 × 10^–6 cm/s
